Measured values: ChEMBL document CHEMBL5543068, “Mitochondrial targeting derivatives of honokiol enhanced selective antitumor activity in NCI-H446 cells and decreased in vivo toxicity in Caenorhabditis elegans” (Eur J Med Chem, 2024)
pIC50: −log10 of the molar value.

How the values were obtained:
A549 = experiment: Antiproliferative activity against human A549 cells assessed as reduction in cell viability incubated for 48 hrs by MTT assay; assay type: functional, cell-based; conditions: A549, 48 h
NCI-H446 = experiment: Antiproliferative activity against human NCI-H446 cells assessed as reduction in cell viability incubated for 48 hrs by MTT assay; assay type: functional, cell-based; conditions: NCI-H446, 48 h
[1] = Cytotoxicity against human HL7702 cells assessed as reduction in cell viability incubated for 48 hrs by MTT assay; assay type: toxicity, cell-based; conditions: HL7702 (L02) cells
[2] = Cytotoxicity against HBE (human bronchial epithelial) cells assessed as reduction in cell viability incubated for 48 hrs by MTT assay; assay type: toxicity, cell-based
HepG2 = experiment: Antiproliferative activity against human HepG2 cells assessed as reduction in cell viability incubated for 48 hrs by MTT assay; assay type: functional, cell-based; conditions: HepG2, 48 h

| SMILES | pIC50 (A549) | pIC50 (NCI-H446) | IC50 at 48 h [1] [µM] | IC50 at 48 h [2] [µM] | pIC50 (HepG2) |
| --- | --- | --- | --- | --- | --- |
| C=CCc1ccc(OCCCCCCCCCCOC(=O)Cc2c3[n+](cc4c(OC)c(OC)ccc24)CCc2cc4c(cc2-3)OCO4)c(-c2ccc(OC)c(CC=C)c2)c1 | 5.73 | 5.52 | 5 | 5.83 | 5.71 |
| C=CCc1ccc(OCCC)c(-c2ccc(OC(=O)Cc3c4[n+](cc5c(OC)c(OC)ccc35)CCc3cc5c(cc3-4)OCO5)c(CC=C)c2)c1 | 5.22 | 5.30 | 3.39 | 17.9 | 5.52 |
| C=CCc1ccc(OCCC[n+]2ccc(/C=C/c3c[nH]c4ccccc34)cc2)c(-c2ccc(OCCC)c(CC=C)c2)c1 | 5.77 | 5.76 | 1.77 | 9.47 | 5.94 |
| CCCCCCCCCCOC(=O)Cc1c2[n+](cc3c(OC)c(OC)ccc13)CCc1cc3c(cc1-2)OCO3 | 5.82 | 5.76 | 3.83 | 4.35 | 5.37 |
| C=CCc1ccc(OCCC)c(-c2ccc(OCCCCCCCCCCOC(=O)Cc3c4[n+](cc5c(OC)c(OC)ccc35)CCc3cc5c(cc3-4)OCO5)c(CC=C)c2)c1 | 5.21 | 5.10 | 4.39 | 10.7 | 5.10 |
| CCCOC(=O)Cc1c2[n+](cc3c(OC)c(OC)ccc13)CCc1cc3c(cc1-2)OCO3 | 4.80 | < 5.00 | > 30 | > 30 | < 4.52 |
| CCCCCCCCCCCCc1c2[n+](cc3c(OC)c(OC)ccc13)CCc1cc3c(cc1-2)OCO3 | 6.07 | 6.19 | 2.78 | 1.23 | 5.57 |
| C=CCc1ccc(OC)c(-c2ccc(OCCCCCC[n+]3ccc(/C=C/c4c[nH]c5ccccc45)cc3)c(CC=C)c2)c1 | 5.47 | 5.52 | 3.56 | 20.4 | 5.57 |
| CCCCCCCCCCc1c2[n+](cc3c(OC)c(OC)ccc13)CCc1cc3c(cc1-2)OCO3 | 5.93 | 6.08 | 3.8 | 1.52 | 4.87 |
| C=CCc1ccc(OC(=O)Cc2c3[n+](cc4c(OC)c(OC)ccc24)CCc2cc4c(cc2-3)OCO4)c(-c2ccc(OCCC)c(CC=C)c2)c1 | 5.39 | 5.29 | 3.8 | 7.08 | 5.65 |
| C=CCc1ccc(OCCCCCCCCCC[n+]2ccc(/C=C/c3c[nH]c4ccccc34)cc2)c(-c2ccc(OC)c(CC=C)c2)c1 | 5.24 | 5.52 | 4.03 | 7.47 | 5.47 |
| C=CCc1ccc(OCCC)c(-c2ccc(OCCCOC(=O)Cc3c4[n+](cc5c(OC)c(OC)ccc35)CCc3cc5c(cc3-4)OCO5)c(CC=C)c2)c1 | 5.46 | 5.61 | 3.39 | 6.7 | 5.65 |
| C=CCc1ccc(OC)c(-c2ccc(OCCCCCCCCCCOC(=O)Cc3c4[n+](cc5c(OC)c(OC)ccc35)CCc3cc5c(cc3-4)OCO5)c(CC=C)c2)c1 | 5.57 | 5.80 | 2.01 | 5.01 | 5.62 |
| C=CCc1ccc(OCCCOC(=O)Cc2c3[n+](cc4c(OC)c(OC)ccc24)CCc2cc4c(cc2-3)OCO4)c(-c2ccc(OCCC)c(CC=C)c2)c1 | 5.24 | 5.43 | 2.6 | 9.5 | 5.41 |
| C=CCc1ccc(OCCCCCCOC(=O)Cc2c3[n+](cc4c(OC)c(OC)ccc24)CCc2cc4c(cc2-3)OCO4)c(-c2ccc(OCCC)c(CC=C)c2)c1 | 5.47 | 5.63 | 5.7 | 7.08 | 5.74 |
| C=CCc1ccc(OC)c(-c2ccc(OCCCCCCCCCC[n+]3ccc(/C=C/c4c[nH]c5ccccc45)cc3)c(CC=C)c2)c1 | 4.98 | 5.28 | 7.09 | 13.5 | 5.56 |
| C=CCc1ccc(OCCCCCCCCCCOC(=O)Cc2c3[n+](cc4c(OC)c(OC)ccc24)CCc2cc4c(cc2-3)OCO4)c(-c2ccc(OCCC)c(CC=C)c2)c1 | 5.36 | 5.26 | 3.96 | 17.5 | 5.38 |
| C=CCc1ccc(OCCCCCCCCCC[n+]2ccc(/C=C/c3c[nH]c4ccccc34)cc2)c(-c2ccc(OCCC)c(CC=C)c2)c1 | 5.09 | 5.12 | 6.98 | 17.3 | 5.28 |
| C=CCc1ccc(OCCCOC(=O)Cc2c3[n+](cc4c(OC)c(OC)ccc24)CCc2cc4c(cc2-3)OCO4)c(-c2ccc(OC)c(CC=C)c2)c1 | < 5.00 | 5.15 | 6.5 | 19.4 | 5.18 |
| COc1ccc2cc3[n+](cc2c1OC)CCc1cc2c(cc1-3)OCO2 [BERBERINE CHLORIDE] | < 4.30 | < 4.30 | > 50 | > 50 | < 4.30 |
| C=CCc1ccc(OCCCCCC[n+]2ccc(/C=C/c3c[nH]c4ccccc34)cc2)c(-c2ccc(OC)c(CC=C)c2)c1 | 5.60 | 5.57 | 3.88 | 6.17 | 5.75 |
| C=CCc1ccc(OC)c(-c2ccc(OCCCCCCOC(=O)Cc3c4[n+](cc5c(OC)c(OC)ccc35)CCc3cc5c(cc3-4)OCO5)c(CC=C)c2)c1 | 5.54 | 5.85 | 4.37 | 5.09 | 5.76 |
| C=CCc1ccc(OCCCCCC[n+]2ccc(/C=C/c3c[nH]c4ccccc34)cc2)c(-c2ccc(OCCC)c(CC=C)c2)c1 | 5.31 | 5.48 | 2.34 | 11.1 | 5.63 |
| C[n+]1ccc(/C=C/c2c[nH]c3ccccc23)cc1 | < 4.22 | < 4.22 | > 60 | > 60 | < 4.22 |
| C=CCc1ccc(OCCCCCCOC(=O)Cc2c3[n+](cc4c(OC)c(OC)ccc24)CCc2cc4c(cc2-3)OCO4)c(-c2ccc(OC)c(CC=C)c2)c1 | 5.46 | 5.47 | 5.7 | 7.06 | 5.62 |
| C=CCc1ccc(OC(=O)Cc2c3[n+](cc4c(OC)c(OC)ccc24)CCc2cc4c(cc2-3)OCO4)c(-c2ccc(OC)c(CC=C)c2)c1 | 5.26 | 5.49 | 5 | 8.14 | 5.57 |
| C=CCc1ccc(OCCC)c(-c2ccc(OCCCCCCCCCC[n+]3ccc(/C=C/c4c[nH]c5ccccc45)cc3)c(CC=C)c2)c1 | 5.02 | 5.19 | 12.3 | 16.5 | 5.09 |
| C=CCc1ccc(OC)c(-c2ccc(OC(=O)Cc3c4[n+](cc5c(OC)c(OC)ccc35)CCc3cc5c(cc3-4)OCO5)c(CC=C)c2)c1 | 5.26 | 5.33 | 4.21 | 16.1 | 5.55 |
| C=CCc1ccc(OC)c(-c2ccc(OCCC[n+]3ccc(/C=C/c4c[nH]c5ccccc45)cc3)c(CC=C)c2)c1 | 5.27 | 5.20 | 8.12 | 20.4 | 5.34 |
